Laboratory results taken from patent publication US20240139185A1, “COMPOUNDS THAT PARTICIPATE IN COOPERATIVE BINDING AND USES THEREOF” (Revolution Medicines, Inc., priority 2018, published 2024).

Assays:
KRAS-G12C = target: T1, KRAS-G12C (Homo sapiens, UniProt P01116+P62937, G12C); assay: Percentage of crosslinking to KRAS-G12C in the presence of BME and CYPA (TOF-MS); assay type: biochemical; details: 5 min incubation; compound 2 μM, CypA 5 μM, G12C-GMPNP 0.5 μM, BME
T1 construct: CypA 1-165 (final concentration 5 μM)
Method: • 1. 10×Incubation buffer: 125 mM HEPES pH 7.4, 750 mM NaCl, 10 mM MgCl2 • 2. 50 μM Protein A stock (CypA) in incubation buffer • 3. 5 μM Protein B (G12C-GMPNP) stock in incubation buffer • 4. 20 μM compound stock in 1×Incubation buffer with 10% DMSO • 5. 25 mM BME stock solution (prepared by diluting the BME stock in Milli Q water)
CypA 1-165 (final concentration 5 μM), test compound (final concentration 2 μM) and G12C-GMPNP (final concentration 0.5 μM) were incubated in the incubation buffer ([…]) for the requisite amount of time at room temperature. The samples were quenched with formic acid, final concentration 0.5%. 10 μL aliquots were injected to TOF-MS.
Sequence of Addition for a Final Incubation Volume of 50 μL • 1. 5 μL 10×incubation buffer • 2. 28 ul H2O • 3. 2 μL from 25 mM BME stock • 4. 5 μL CypA at 50 uM • 5. 5 μL from 5 μM G12C-GMPNP • 6. 5 μL compound from 20 μM compound stock
LC-MS is performed on an Agilent 6230 TOF-LC mass spectrometer equipped with an electrospray probe operated in positive ionization mode. 10 μL samples are injected on a Sepax Bio-C4, 300 Å, 2.1×100 mm column. The mobile phase is 0.1% (vol/vol) formic acid and 0.1% 1 mM ammonium formate in 95% water, 4.8% acetonitrile (A) and 0.1% (vol/vol) formic acid and 0.1% 1 mM ammonium formate in 95% acetonitrile and 4.8% water (B). The separation is performed by a 9 min total gradient consisting of 5 min linear gradient from 25% to 50% B, and a wash at 100% B for 1.25 min, all at a flow rate of 0.6 mL/min (see attached timetable below). Mass spectrometer source conditions were capillary voltage, 4,000 V; cone voltage, 120 V; source temperature, 275° C.; scan range, 100-2,000 a.m.u. with a cycle time of 1 s.
The observed mass is generated by averaging the major peak in the total ion current (TIC). The charge-state series of the species are deconvoluted using Agilent MassHunter Bioconfirm using maximum entropy setting (range is set to 17000-23000 Da). […]

[1] = target: T2, BRAF-GTP-KRAS-G12C complex (Homo sapiens, UniProt P01116, G12C); assay: KRAS-BRAF complex disruption TR-FRET without CYPA (presenter dependence); assay type: biochemical
T2 construct: 50 nM of His6-KRas G12C-GTP (1-169)
Method: In this example, TR-FRET was used to measure the compound-facilitated disruption of a KRAS-BRAF complex. A mixture of tagless Cyclophilin A, His6-KRAS G12C-GMP-PNP, and GST-BRAF RAS binding domain was added to a 384-well assay plate containing compounds of the invention and incubated for 3 hours. A mixture of Anti-His Eu-W1024 and anti-GST allophycocyanin was then added and the reaction was incubated for an additional 1.5 hours. TR-FRET signal was read on an EnVision microplate reader (Perkin Elmer, Ex 320 nm, Em 665/615 nm). Compounds that facilitate disruption of a KRAS_BRAF complex were identified as those eliciting a decrease in the TR-FRET ratio relative to DMSO control wells. To determine the presenter-dependence of the compound-mediated KRAS-BRAF complex disruption, Cyclophilin A was left out of the initial incubation (see Table 5). To determine G12C specificity of the compound-mediated KRAS-BRAF complex disruption, wild-type KRAS was used instead of G12C KRAS (see Table 5).
Reagents and Instrument • Tagless CYPA; 519 μM in PBS buffer, pH 7.4 • GST BRAF; 110 μM in PBS buffer, pH 7.4 • His6-KRASG12C-GMP-PNP; 50 μM in PBS buffer, pH 7.4 • His6-KRASWT-GMP-PNP; 40 μM in PBS buffer, pH 7.4 • Anti-His Eu-W1024 (LANCE® Eu-W1024; Perkin Elmer) • Anti-GST allophycocyanin (Anti-GST IgG conjugated to SureLight®-Allophycocyanin; Perkin Elmer; Product Number AD0059G) • Test compounds, 10 mM in 100% DMSO • EnVision (Perkin Elmer) • Combi MultiDrop liquid dispenser with 8-channel small volume cassette • 384-well ProxiPlate (black)
Experimental Protocol • 1. Use Mosquito to dispense 100 nL/well of compounds (varying concentration in […]) into 384-well black ProxiPlate to make assay-ready-plate (ARP). • 2. Make assay buffer containing 25 mM Hepes pH 7.3, 100 mM NaCl, 5 mM MgCl2, 0.05% BSA, and 0.002% Tween-20. • 3. Make PRE-MIX A: delivers final concentrations of 50 nM of His6-KRas G12C-GTP (1-169) and 500 nM of tagless CypA (1-165) in assay buffer. • a. […] Read on EnVision (Ex: 320 nm; Em1: 615 nm; Em2: 665 nm). • 8. […]

SMILES | % Crosslinking with KRAS-G12C-GTP in presence of CYPA, 5 min incubation (KRAS-G12C) [%] | IC50 [1] [µM]
CC1COC(=O)C2CCCN(N2)C(=O)C(NC(=O)C(C(C)C)N(C)C(=O)C2CN(C(=O)CCl)C2)Cc2cc(O)cc(c2)-c2ccc3c(c2)c(cn3CC2COC2)C1 (mixture of isomers) [Compound 226] | 27 | > 30
CC1COC(=O)C2CCCN(N2)C(=O)C(NC(=O)C(C(C)C)N(C)C(=O)C2CN(C(=O)CCl)C2)Cc2cc(O)cc(c2)-c2ccc3c(S(C)(=O)=O)cn(c3c2)C1 (single isomer, unassigned) [Compound 110] | 83 | > 30
